Experimental data published in article PMC7996328, “Design, Synthesis, and Biological Evaluation of a Series of 5- and 7-Hydroxycoumarin Derivatives as 5-HT1A Serotonin Receptor Antagonists” (Pharmaceuticals, 2021).
Entries after “also recorded” stand apart in the source; their conditions may differ.

Tests used:
[1] = target: 5-HT1A receptor; conditions: previously synthesized coumarins derivatives, Figure 1; read-out: Ki, 5-HT1A receptor affinity; cited from earlier work
[2] = target: T1, 5-HT1A receptor (Rattus norvegicus, UniProt P19327); experiment: G-protein enhancing (agonist) effect at the 5-HT1A receptor; type: biochemical; conditions: for functional character at the 5-HT1A receptor: in words
T1 construct: Hippocampal homogenates (15 μg/mL) were added to each tube as the 5-HT1A receptor source; from tissue; host or cells: rat hippocampus (male Sprague-Dawley), membrane homogenate
T1 sequence (P19327 1-422): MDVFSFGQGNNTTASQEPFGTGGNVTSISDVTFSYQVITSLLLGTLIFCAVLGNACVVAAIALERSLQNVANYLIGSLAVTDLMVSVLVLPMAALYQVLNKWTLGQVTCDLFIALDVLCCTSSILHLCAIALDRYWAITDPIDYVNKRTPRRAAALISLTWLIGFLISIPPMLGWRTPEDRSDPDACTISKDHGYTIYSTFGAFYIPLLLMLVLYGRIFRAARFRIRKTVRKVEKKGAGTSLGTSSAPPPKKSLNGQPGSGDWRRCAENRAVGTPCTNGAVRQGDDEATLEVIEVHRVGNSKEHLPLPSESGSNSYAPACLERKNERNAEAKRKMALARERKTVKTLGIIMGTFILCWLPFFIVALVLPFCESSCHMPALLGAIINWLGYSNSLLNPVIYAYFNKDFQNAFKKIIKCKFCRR

[3] = target: T2, 5-HT2A receptor (Rattus norvegicus, UniProt P14842); experiment: 5-HT2A competition binding assay, [3H]ketanserin, frontal cortex homogenates; conditions: [3H]ketanserin 1 nM, read-out: Ki (nM ± SEM) (converted)
T2 construct: from tissue; host or cells: rat frontal cortex (male SD), membrane homogenate

[4] = target: T1, 5-HT1A receptor; experiment: Antagonist activity for the 5-HT1A receptor, [35S]GTPγS assay in hippocampal homogenates; type: biochemical; conditions: 8-OH-DPAT 1.4 × 10^−7 M, mean ± SEM; for EC50 / EC50 (nM ± SEM): antagonistic activity
[5] = G-protein enhancing effect, 5-HT1A
[6] = G-protein enhancing effect, 5-HT1A, read-out: EC50 (nM ± SEM)

T2 sequence (P14842 whole entry): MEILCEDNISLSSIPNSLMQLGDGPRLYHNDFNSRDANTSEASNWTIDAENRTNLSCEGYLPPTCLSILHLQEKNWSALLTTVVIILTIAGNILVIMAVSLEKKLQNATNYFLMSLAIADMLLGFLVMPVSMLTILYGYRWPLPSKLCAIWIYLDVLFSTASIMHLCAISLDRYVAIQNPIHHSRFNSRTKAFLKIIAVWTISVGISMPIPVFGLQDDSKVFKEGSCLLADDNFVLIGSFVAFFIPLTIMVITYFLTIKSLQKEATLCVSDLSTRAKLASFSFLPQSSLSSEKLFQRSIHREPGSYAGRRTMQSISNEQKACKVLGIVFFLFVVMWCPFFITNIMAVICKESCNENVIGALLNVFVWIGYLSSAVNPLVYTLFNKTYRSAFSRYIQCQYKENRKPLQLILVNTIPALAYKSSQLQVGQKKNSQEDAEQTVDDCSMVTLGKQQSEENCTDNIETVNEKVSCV

SMILES | Ki [1] | melting point | Ki [3] | other results
Cc1cc(OCCCCN2CCN(c3ccccc3F)CC2)c2c(C)cc(=O)oc2c1 [IIb] | 0.003 ± 0.0001 µM | – | – | –
Cc1cc(OCCCN2CCN(c3ccccc3C#N)CC2)c2c(C)cc(=O)oc2c1 [IIe] | 0.0015 ± 0.0002 µM | – | – | –
Cc1cc(OCCCN2CCN(c3cccc(Cl)c3Cl)CC2)c2c(C)cc(=O)oc2c1 [IIc] | 0.008 ± 4e-05 µM | – | – | –
Cc1cc(OCCCN2CCN(c3ccccc3F)CC2)c2c(C)cc(=O)oc2c1 [IIa] | 0.0017 ± 5e-06 µM | – | – | –
Cc1cc(OCCCCN2CCN(c3ccccc3C#N)CC2)c2c(C)cc(=O)oc2c1 [IIf] | 0.003 ± 0.0002 µM | – | – | –
Cc1cc(OCCN2CCN(c3cccc(F)c3)CC2)c2c(C)cc(=O)oc2c1 [Compound 2e, 5-(2-(4-(3-fluorophenyl)piperazin-1-yl)ethoxy)-4,7-dimethyl-2H-chromen-2-one] | – | 120 to 122 °C | – | Emax [2, 5]: 118 ± 1.48%; EC50 [2, 6]: 179 ± 39.3 nM; functional character at the 5-HT1A receptor [2]: weak partial agonists
Cc1cc(OCCN2CCN(c3cccc(Br)c3)CC2)c2c(C)cc(=O)oc2c1 [Compound 2g, 5-(4-(4-(3-bromophenyl)piperazin-1-yl)ethoxy)-4,7-dimethyl-2H-chromen-2-one] | – | 126 to 127 °C | 3540 nM | Emax [2, 5]: 118 ± 6.5%; Emax (% ± SEM) [2, 5]: 113 ± 6.5%; EC50 [2, 6]: 5080 ± 2640 nM; EC50 ([2]; G-protein enhancing effect, 5-HT1A, read-out: pEC50 (converted)): 6310 nM; functional character at the 5-HT1A receptor [2]: weak partial agonists
Cc1cc(OCCCCN2CCN(c3cccc(Cl)c3Cl)CC2)c2c(C)cc(=O)oc2c1 [IId] | 0.004 ± 0.0008 µM | – | – | –
CC(=O)c1c(OCCN2CCN(c3cccc(F)c3)CC2)ccc2c(C)cc(=O)oc12 [Compound 6e, 8-acetyl-7-(2-[4-(3-fluorophenyl)piperazin-1-yl]ethoxy)-4-methylchromen-2-one] | – | 86 to 88 °C | 1670 ± 274 nM | IC50 [4]: 100 µM; EC50 [4]: 98900 nM
Cc1cc(OCCN2CCN(c3ccccc3F)CC2)c2c(C)cc(=O)oc2c1 [Compound 2b, 5-(2-(4-(2-fluorophenyl)piperazin-1-yl)ethoxy)-4,7-dimethyl-2H-chromen-2-one] | – | 121 to 123 °C | 2130 ± 662 nM | pIC50 ± SEM [4]: no activity; EC50 (nM ± SEM) [4]: did not show any activity; also recorded: no activity
Cc1cc(C)cc(N2CCN(CCCCCOc3cc(C)cc4oc(=O)cc(C)c34)CC2)c1 [Compound 1h, 5-(5-(4-(3,5-dimethylphenyl)piperazin-1-yl)pentyloxy)-4,7-dimethyl-2H-chromen-2-one] | – | 104 to 106 °C | 1820 ± 636 nM | IC50 [4]: 200 µM; EC50 [4]: 198000 nM
CC(=O)c1c(OCCN2CCN(c3cc(C)ccc3C)CC2)ccc2c(C)cc(=O)oc12 [Compound 6d, 8-acetyl-7-(2-[4-(2,5-dimethylphenyl)piperazin-1-yl]ethoxy)-4-methylchromen-2-one] | – | 96 to 98 °C | 2050 ± 405 nM | IC50 [4]: 63.1 µM; EC50 [4]: 59900 nM
Cc1cc(OCCN2CCN(c3ccccc3Br)CC2)c2c(C)cc(=O)oc2c1 [Compound 2f, 5-(2-(4-(2-bromophenyl)piperazin-1-yl)ethoxy)-4,7-dimethyl-2H-chromen-2-one] | – | 129 to 130 °C | 9600 ± 2840 nM | pIC50 ± SEM [4]: no activity; EC50 (nM ± SEM) [4]: did not show any activity; also recorded: no activity
CC(=O)c1c(OCCCCCN2CCN(c3ccccc3C#N)CC2)ccc2c(C)cc(=O)oc12 [Compound 5j, 8-acetyl-7-(5-[4-(2-cyanophenyl)piperazin-1-yl]penthoxy)-4-methylchromen-2-one] | – | 59 to 61 °C | 2550 ± 765 nM | IC50 [4]: 15.8 µM; EC50 [4]: 13900 nM
